We go through four compounds from patent publication US11034650B2, “Compounds useful for treating a Mannheimia haemolytica or Histophilus somni infection” (Intervet Inc., priority 2016, dated 2021).

Converted amounts (≈) assume the structure as drawn.

The subject of one experiment is Pasteurella multocida PM 6391 (ATCC 43137, reference strain). Briefly: MIC, broth-microdilution (CLSI VET01-A4), strain PM 6391. The format is cell-based. Conditions: Pasteurella multocida strain PM 6391, broth-microdilution; unit assumed. Put shortly:
(§1)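 Doubling dilution series in trays; visual read, MIC = lowest conc. with no visible turbidity; interpretation per CLSI VET01-S3.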
For orientation: In broth dilution the organism is exposed to a series of concentrations in liquid medium.
`CC(C)([C@H](NC(=O)c1ccc(C#Cc2ccc(CNCc3ccccc3)s2)cc1)C(=O)NO)S(C)(=O)=O` [Compound 315] returned an MIC PM 6391 of at most 0.1 µg/mL.

The compound `CSC(C)(C)[C@H](NC(=O)c1ccc(C#Cc2ccc(CNCC3CCCO3)cc2)cc1)C(=O)NO` (stereo partly shown) [Compound 253] had an MIC PM 6391 of 0.4 µg/mL (≈ 0.807 µM).

The compound `CC(C)[C@H](NC(=O)c1ccc(C#Cc2ccc(CNCc3cccs3)cc2)cc1)C(=O)NO` [Compound 171] had an MIC PM 6391 of 0.2 µg/mL (≈ 0.433 µM).

With `CC(C)(C(NC(=O)c1ccc(C#Cc2ccc(CNCc3ccc(Cl)cc3)cc2)cc1)C(=O)NO)[N+](=O)[O-]` (stereo not shown) [Compound 277], the MIC PM 6391 was 0.8 µg/mL (≈ 1.5 µM).

For the next experiment, the system named is Mannheimia haemolytica MH 12587 (1071, BRD field isolate, macrolide-resistance: erm+, E+). Briefly: MIC, broth-microdilution (CLSI VET01-A4), strain MH 12587. The format is cell-based. To be noted: Mannheimia haemolytica strain MH 12587, broth-microdilution; unit assumed. In short, it runs like this: as §1
The compound `CC(C)([C@H](NC(=O)c1ccc(C#Cc2ccc(CNCc3ccccc3)s2)cc1)C(=O)NO)S(C)(=O)=O` [Compound 315] showed an MIC MH 12587 of 0.4 µg/mL (≈ 0.741 µM).

`CSC(C)(C)[C@H](NC(=O)c1ccc(C#Cc2ccc(CNCC3CCCO3)cc2)cc1)C(=O)NO` (stereo partly shown) [Compound 253] showed an MIC MH 12587 of 3.1 µg/mL (≈ 6.25 µM).

`CC(C)[C@H](NC(=O)c1ccc(C#Cc2ccc(CNCc3cccs3)cc2)cc1)C(=O)NO` [Compound 171] displayed an MIC MH 12587 of 0.8 µg/mL (≈ 1.73 µM).

`CC(C)(C(NC(=O)c1ccc(C#Cc2ccc(CNCc3ccc(Cl)cc3)cc2)cc1)C(=O)NO)[N+](=O)[O-]` (stereo not shown) [Compound 277] registered an MIC MH 12587 of 3.1 µg/mL (≈ 5.79 µM).

The next experiment deals with Mannheimia haemolytica MH 13093 (XB0472-6014.1, BRD field isolate). The experiment is described as follows: MIC, broth-microdilution (CLSI VET01-A4), strain MH 13093. To be noted: Mannheimia haemolytica strain MH 13093, broth-microdilution; unit assumed. The experiment is classed as cell-based. In short, it runs like this:
as §1
On to `CC(C)([C@H](NC(=O)c1ccc(C#Cc2ccc(CNCc3ccccc3)s2)cc1)C(=O)NO)S(C)(=O)=O` [Compound 315], for which the MIC MH 13093 worked out at 0.4 µg/mL (≈ 0.741 µM).

Regarding `CSC(C)(C)[C@H](NC(=O)c1ccc(C#Cc2ccc(CNCC3CCCO3)cc2)cc1)C(=O)NO` (stereo partly shown) [Compound 253], the MIC MH 13093 worked out at 3.1 µg/mL (≈ 6.25 µM).

Regarding `CC(C)[C@H](NC(=O)c1ccc(C#Cc2ccc(CNCc3cccs3)cc2)cc1)C(=O)NO` [Compound 171], the MIC MH 13093 amounted to 0.4 µg/mL (≈ 0.867 µM).

On to `CC(C)(C(NC(=O)c1ccc(C#Cc2ccc(CNCc3ccc(Cl)cc3)cc2)cc1)C(=O)NO)[N+](=O)[O-]` (stereo not shown) [Compound 277], for which the MIC MH 13093 is 1.6 µg/mL (≈ 2.99 µM).

A further experiment deals with Mannheimia haemolytica MH 6357 (M7/2, reference strain, cattle infection strain). The experiment is described as follows: MIC, broth-microdilution (CLSI VET01-A4), strain MH 6357. The format is cell-based. To be noted: Mannheimia haemolytica strain MH 6357, broth-microdilution; unit assumed. In short, it runs like this:
as §1
`CC(C)([C@H](NC(=O)c1ccc(C#Cc2ccc(CNCc3ccccc3)s2)cc1)C(=O)NO)S(C)(=O)=O` [Compound 315] returned an MIC MH 6357 of at most 0.1 µg/mL.

The compound `CSC(C)(C)[C@H](NC(=O)c1ccc(C#Cc2ccc(CNCC3CCCO3)cc2)cc1)C(=O)NO` (stereo partly shown) [Compound 253] showed an MIC MH 6357 of 3.1 µg/mL (≈ 6.25 µM).

The compound `CC(C)[C@H](NC(=O)c1ccc(C#Cc2ccc(CNCc3cccs3)cc2)cc1)C(=O)NO` [Compound 171] registered an MIC MH 6357 of 0.2 µg/mL (≈ 0.433 µM).

As for `CC(C)(C(NC(=O)c1ccc(C#Cc2ccc(CNCc3ccc(Cl)cc3)cc2)cc1)C(=O)NO)[N+](=O)[O-]` (stereo not shown) [Compound 277], the MIC MH 6357 came out at 1.6 µg/mL (≈ 2.99 µM).

The next experiment deals with Mannheimia haemolytica MH 13065 (XB0446-6003.9, BRD field isolate). Briefly: MIC, broth-microdilution (CLSI VET01-A4), strain MH 13065. To be noted: Mannheimia haemolytica strain MH 13065, broth-microdilution; unit assumed. The experiment is classed as cell-based. Put shortly:
as §1
`CC(C)([C@H](NC(=O)c1ccc(C#Cc2ccc(CNCc3ccccc3)s2)cc1)C(=O)NO)S(C)(=O)=O` [Compound 315] returned an MIC MH 13065 of at most 0.1 µg/mL.

The compound `CSC(C)(C)[C@H](NC(=O)c1ccc(C#Cc2ccc(CNCC3CCCO3)cc2)cc1)C(=O)NO` (stereo partly shown) [Compound 253] had an MIC MH 13065 of 1.6 µg/mL (≈ 3.23 µM).

The compound `CC(C)[C@H](NC(=O)c1ccc(C#Cc2ccc(CNCc3cccs3)cc2)cc1)C(=O)NO` [Compound 171] returned an MIC MH 13065 of 0.2 µg/mL (≈ 0.433 µM).

`CC(C)(C(NC(=O)c1ccc(C#Cc2ccc(CNCc3ccc(Cl)cc3)cc2)cc1)C(=O)NO)[N+](=O)[O-]` (stereo not shown) [Compound 277]: the MIC MH 13065 was found to be 1.6 µg/mL (≈ 2.99 µM).

Another experiment relates to Mannheimia haemolytica MH 6374 (ATCC 33396, reference strain). The experiment is described as follows: MIC, broth-microdilution (CLSI VET01-A4), strain MH 6374. The experiment is classed as cell-based. Conditions: Mannheimia haemolytica strain MH 6374, broth-microdilution; unit assumed. In short, it runs like this: as §1
`CC(C)([C@H](NC(=O)c1ccc(C#Cc2ccc(CNCc3ccccc3)s2)cc1)C(=O)NO)S(C)(=O)=O` [Compound 315] had an MIC MH 6374 of at most 0.1 µg/mL.

As for `CSC(C)(C)[C@H](NC(=O)c1ccc(C#Cc2ccc(CNCC3CCCO3)cc2)cc1)C(=O)NO` (stereo partly shown) [Compound 253], the MIC MH 6374 was found to be 3.1 µg/mL (≈ 6.25 µM).

Compound `CC(C)[C@H](NC(=O)c1ccc(C#Cc2ccc(CNCc3cccs3)cc2)cc1)C(=O)NO` [Compound 171] returned an MIC MH 6374 of 0.4 µg/mL (≈ 0.867 µM).

In the case of `CC(C)(C(NC(=O)c1ccc(C#Cc2ccc(CNCc3ccc(Cl)cc3)cc2)cc1)C(=O)NO)[N+](=O)[O-]` (stereo not shown) [Compound 277], the MIC MH 6374 stood at 1.6 µg/mL (≈ 2.99 µM).

The subject of another experiment is Pasteurella multocida PM 10775 (080130003051, BRD field isolate). Briefly: MIC, broth-microdilution (CLSI VET01-A4), strain PM 10775. The format is cell-based. To be noted: Pasteurella multocida strain PM 10775, broth-microdilution; unit assumed. Put shortly:
as §1
For `CC(C)([C@H](NC(=O)c1ccc(C#Cc2ccc(CNCc3ccccc3)s2)cc1)C(=O)NO)S(C)(=O)=O` [Compound 315], the MIC PM 10775 is at most 0.1 µg/mL.

Compound `CSC(C)(C)[C@H](NC(=O)c1ccc(C#Cc2ccc(CNCC3CCCO3)cc2)cc1)C(=O)NO` (stereo partly shown) [Compound 253] yielded an MIC PM 10775 of at most 0.1 µg/mL.

`CC(C)[C@H](NC(=O)c1ccc(C#Cc2ccc(CNCc3cccs3)cc2)cc1)C(=O)NO` [Compound 171] showed an MIC PM 10775 of at most 0.1 µg/mL.

In turn, `CC(C)(C(NC(=O)c1ccc(C#Cc2ccc(CNCc3ccc(Cl)cc3)cc2)cc1)C(=O)NO)[N+](=O)[O-]` (stereo not shown) [Compound 277] registered an MIC PM 10775 of at most 0.1 µg/mL.

The subject of another experiment is Pasteurella multocida PM 12080 (IV102277-0093, BRD field isolate). The experiment is described as follows: MIC, broth-microdilution (CLSI VET01-A4), strain PM 12080. Conditions: Pasteurella multocida strain PM 12080, broth-microdilution; unit assumed. The format is cell-based. In short, it runs like this:
as §1
With `CC(C)([C@H](NC(=O)c1ccc(C#Cc2ccc(CNCc3ccccc3)s2)cc1)C(=O)NO)S(C)(=O)=O` [Compound 315], the MIC PM 12080 was at most 0.1 µg/mL.

With `CSC(C)(C)[C@H](NC(=O)c1ccc(C#Cc2ccc(CNCC3CCCO3)cc2)cc1)C(=O)NO` (stereo partly shown) [Compound 253], the MIC PM 12080 came out at 0.4 µg/mL (≈ 0.807 µM).

For `CC(C)[C@H](NC(=O)c1ccc(C#Cc2ccc(CNCc3cccs3)cc2)cc1)C(=O)NO` [Compound 171], the MIC PM 12080 is at most 0.1 µg/mL.

As to `CC(C)(C(NC(=O)c1ccc(C#Cc2ccc(CNCc3ccc(Cl)cc3)cc2)cc1)C(=O)NO)[N+](=O)[O-]` (stereo not shown) [Compound 277], the MIC PM 12080 is 0.4 µg/mL (≈ 0.748 µM).

The test system of a further experiment is Pasteurella multocida PM 6267 (P 2225 (L386), reference strain, mouse infection strain). The experiment is described as follows: MIC, broth-microdilution (CLSI VET01-A4), strain PM 6267. The format is cell-based. Conditions: Pasteurella multocida strain PM 6267, broth-microdilution; unit assumed. Put shortly: as §1
`CC(C)([C@H](NC(=O)c1ccc(C#Cc2ccc(CNCc3ccccc3)s2)cc1)C(=O)NO)S(C)(=O)=O` [Compound 315]: the MIC PM 6267 was found to be 0.2 µg/mL (≈ 0.371 µM).

As to `CSC(C)(C)[C@H](NC(=O)c1ccc(C#Cc2ccc(CNCC3CCCO3)cc2)cc1)C(=O)NO` (stereo partly shown) [Compound 253], the MIC PM 6267 was at most 0.1 µg/mL.

Take `CC(C)[C@H](NC(=O)c1ccc(C#Cc2ccc(CNCc3cccs3)cc2)cc1)C(=O)NO` [Compound 171]: the MIC PM 6267 is at most 0.1 µg/mL.

Take `CC(C)(C(NC(=O)c1ccc(C#Cc2ccc(CNCc3ccc(Cl)cc3)cc2)cc1)C(=O)NO)[N+](=O)[O-]` (stereo not shown) [Compound 277]: the MIC PM 6267 was 0.4 µg/mL (≈ 0.748 µM).

A further experiment relates to Mannheimia haemolytica MH 10720 (154, BRD field isolate). Briefly: MIC, broth-microdilution (CLSI VET01-A4), strain MH 10720. The experiment is classed as cell-based. Conditions: Mannheimia haemolytica strain MH 10720, broth-microdilution; unit assumed. In short, it runs like this:
as §1
The compound `CC(C)([C@H](NC(=O)c1ccc(C#Cc2ccc(CNCc3ccccc3)s2)cc1)C(=O)NO)S(C)(=O)=O` [Compound 315] displayed an MIC MH 10720 of at most 0.1 µg/mL.

`CSC(C)(C)[C@H](NC(=O)c1ccc(C#Cc2ccc(CNCC3CCCO3)cc2)cc1)C(=O)NO` (stereo partly shown) [Compound 253]: the MIC MH 10720 is 0.8 µg/mL (≈ 1.61 µM).

For the compound `CC(C)[C@H](NC(=O)c1ccc(C#Cc2ccc(CNCc3cccs3)cc2)cc1)C(=O)NO` [Compound 171], the MIC MH 10720 is at most 0.1 µg/mL.

The compound `CC(C)(C(NC(=O)c1ccc(C#Cc2ccc(CNCc3ccc(Cl)cc3)cc2)cc1)C(=O)NO)[N+](=O)[O-]` (stereo not shown) [Compound 277] yielded an MIC MH 10720 of 0.4 µg/mL (≈ 0.748 µM).
